Non-standard residues stand in square brackets, D forms with d. Residues, ends and D or L forms follow the SMILES beside them. *: point of attachment. Phe(F5) = N[C@@H](Cc1c(F)c(F)c(F)c(F)c1F)C(=O)O; Desaminotyrosyl = O=C(CCc1ccc(O)cc1)*; NMeY = CN[C@@H](Cc1ccc(O)cc1)C(=O)O; Agmatine = N=C(N)NCCCCN*; NMeA = CN[C@@H](C)C(=O)O; Nle = CCCC[C@H](N)C(=O)O; Orn = NCCC[C@H](N)C(=O)O; Abu = CC[C@H](N)C(=O)O; Aoc = NCCCCCCCC(=O)O
target: T1, GHRH receptor (human pituitary membrane homogenates) (Homo sapiens, UniProt Q02643); assay: GHRH receptor binding, ligand competition with 125I-labeled JV-1-42 (Table 7); design: Normal human pituitaries were purchased from the National Hormone and Peptide Program; tissue National Hormone and Peptide Program (A. F. Parlow, Harbor-UCLA Medical Center, Torrance, Calif.); host or cells: normal human pituitary, membrane fraction / homogenate; details: JI-38 = 1
T1 sequence (Q02643 23-423): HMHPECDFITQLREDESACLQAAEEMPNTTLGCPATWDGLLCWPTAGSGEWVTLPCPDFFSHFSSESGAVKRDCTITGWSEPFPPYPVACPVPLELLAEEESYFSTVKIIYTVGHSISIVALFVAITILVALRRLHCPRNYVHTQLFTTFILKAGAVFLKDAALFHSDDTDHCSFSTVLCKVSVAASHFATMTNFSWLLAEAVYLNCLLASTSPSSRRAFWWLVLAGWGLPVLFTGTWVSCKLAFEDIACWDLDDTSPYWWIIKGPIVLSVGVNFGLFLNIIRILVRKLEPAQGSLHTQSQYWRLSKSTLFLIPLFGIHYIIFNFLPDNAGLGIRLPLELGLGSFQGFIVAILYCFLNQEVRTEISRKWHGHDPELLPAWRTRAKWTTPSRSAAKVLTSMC

SMILES | Relative affinitiy (Binding potency) vs JI-38
CCCC[C@H](NC(=O)[C@@H](NC(=O)[C@H](CC(=O)O)NC(=O)[C@H](CCC(N)=O)NC(=O)[C@H](CC(C)C)NC(=O)[C@H](CC(C)C)NC(=O)[C@H](CCCN)NC(=O)[C@H](CCCNC(=N)N)NC(=O)[C@H](C)NC(=O)[C@H](CO)NC(=O)[C@H](CC(C)C)NC(=O)[C@H](CCC(N)=O)NC(=O)[C@H](CC)NC(=O)[C@H](CC(C)C)NC(=O)[C@@H](NC(=O)[C@H](CCCN)NC(=O)[C@H](CCCNC(=N)N)NC(=O)[C@H](Cc1ccc(O)cc1)NC(=O)[C@H](CO)NC(=O)[C@H](CCC(N)=O)NC(=O)[C@@H](NC(=O)[C@H](Cc1ccccc1)NC(=O)[C@@H](NC(=O)[C@H](C)NC(=O)[C@H](CC(=O)O)NC(=O)[C@@H](C)NC(=O)[C@H](Cc1ccc(O)cc1)N(C)C(C)=O)[C@@H](C)CC)[C@@H](C)O)C(C)C)[C@@H](C)CC)C(=O)N[C@@H](CC(=O)O)C(=O)NCCCCNC(=N)N [Peptide P-20351, [Ac—N—Me-Tyr^1, D-Ala^2, Gln^8, Orn^12, Abu^15, Orn^21, Nle^27, Asp^28, Agm^29]hGHRH(1-29)] (Ac-[NMeY][dA]DAIFTQSYR[Orn]VL[Abu]QLSAR[Orn]LLQDI[Nle]D-Agmatine) | 1.26
CCCC[C@H](NC(=O)[C@@H](NC(=O)[C@H](CC(=O)O)NC(=O)[C@H](CCC(N)=O)NC(=O)[C@H](CC(C)C)NC(=O)[C@H](CC(C)C)NC(=O)[C@H](CCCN)NC(=O)[C@H](CCCNC(=N)N)NC(=O)[C@H](C)NC(=O)[C@H](CO)NC(=O)[C@H](CC(C)C)NC(=O)[C@H](CCC(N)=O)NC(=O)[C@H](CC)NC(=O)[C@H](CC(C)C)NC(=O)[C@@H](NC(=O)[C@H](CCCN)NC(=O)[C@H](CCCNC(=N)N)NC(=O)[C@H](Cc1ccc(O)cc1)NC(=O)[C@H](CO)NC(=O)[C@H](C)N(C)C(=O)[C@@H](NC(=O)[C@H](Cc1ccccc1)NC(=O)[C@@H](NC(=O)[C@H](C)NC(=O)[C@H](CC(=O)O)NC(=O)[C@@H](C)NC(=O)CCc1ccc(O)cc1)[C@@H](C)CC)[C@@H](C)O)C(C)C)[C@@H](C)CC)C(=O)N[C@@H](CC(=O)O)C(=O)NCCCCNC(=N)N [Peptide P-20357, [Dat^1, D-Ala^2, N—Me-Ala^8, Orn^12, Abu^15, Orn^21, Nle^27, Asp^28, Agm^29]hGHRH(1-29)] (Desaminotyrosyl-[dA]DAIFT[NMeA]SYR[Orn]VL[Abu]QLSAR[Orn]LLQDI[Nle]D-Agmatine) | 5.06
CCCC[C@H](NC(=O)[C@@H](NC(=O)[C@H](CC(=O)O)NC(=O)[C@H](CCC(N)=O)NC(=O)[C@H](CC(C)C)NC(=O)[C@H](CC(C)C)NC(=O)[C@H](CCCN)NC(=O)[C@H](CCCNC(=N)N)NC(=O)[C@H](C)NC(=O)[C@H](CO)NC(=O)[C@H](CC(C)C)NC(=O)[C@H](CCC(N)=O)NC(=O)[C@H](CC)NC(=O)[C@H](CC(C)C)NC(=O)[C@@H](NC(=O)[C@H](CCCN)NC(=O)[C@H](CCCNC(=N)N)NC(=O)[C@H](Cc1ccc(O)cc1)NC(=O)[C@H](CO)NC(=O)[C@H](CC(N)=O)NC(=O)[C@@H](NC(=O)[C@H](Cc1c(F)c(F)c(F)c(F)c1F)NC(=O)[C@@H](NC(=O)[C@H](C)NC(=O)[C@H](CC(=O)O)NC(=O)[C@@H](C)NC(=O)[C@H](Cc1ccc(O)cc1)NC)[C@@H](C)CC)[C@@H](C)O)C(C)C)[C@@H](C)CC)C(=O)N[C@@H](CC(=O)O)C(=O)NCCCCNC(=N)N [Peptide P-20359, [N—Me-Tyr^1, D-Ala^2, Fpa5^6, Orn^12, Abu^15, Orn^21, Nle^27, Asp^28, Agm^29]hGHRH(1-29)] (H-[NMeY][dA]DAI[Phe(F5)]TNSYR[Orn]VL[Abu]QLSAR[Orn]LLQDI[Nle]D-Agmatine) | 1.43
CCCC[C@H](NC(=O)[C@@H](NC(=O)[C@H](CC(=O)O)NC(=O)[C@H](CCC(N)=O)NC(=O)[C@H](CC(C)C)NC(=O)[C@H](CC(C)C)NC(=O)[C@H](CCCN)NC(=O)[C@H](CCCNC(=N)N)NC(=O)[C@H](C)NC(=O)[C@H](CO)NC(=O)[C@H](CC(C)C)NC(=O)[C@H](CCC(N)=O)NC(=O)[C@H](CC)NC(=O)[C@H](CC(C)C)NC(=O)[C@@H](NC(=O)[C@H](CCCN)NC(=O)[C@H](CCCNC(=N)N)NC(=O)[C@H](Cc1ccc(O)cc1)NC(=O)[C@H](CO)NC(=O)[C@H](CCC(N)=O)NC(=O)[C@@H](NC(=O)[C@H](Cc1ccccc1)NC(=O)[C@@H](NC(=O)[C@H](C)NC(=O)[C@H](CC(=O)O)NC(=O)[C@@H](C)NC(=O)[C@H](Cc1ccc(O)cc1)NC)[C@@H](C)CC)[C@@H](C)O)C(C)C)[C@@H](C)CC)C(=O)N[C@@H](CC(=O)O)C(=O)NCCCCNC(=N)N [Peptide P-20361, [N—Me-Tyr^1, D-Ala^2, Gln^8, Orn^12, Abu^15, Orn^21, Nle^27, Asp^28, Agm^29] hGHRH(1-29)] (H-[NMeY][dA]DAIFTQSYR[Orn]VL[Abu]QLSAR[Orn]LLQDI[Nle]D-Agmatine) | 5.30
CCCC[C@H](NC(=O)[C@@H](NC(=O)[C@H](CC(=O)O)NC(=O)[C@H](CCC(N)=O)NC(=O)[C@H](CC(C)C)NC(=O)[C@H](CC(C)C)NC(=O)[C@H](CCCN)NC(=O)[C@H](CCCNC(=N)N)NC(=O)[C@H](C)NC(=O)[C@H](CO)NC(=O)[C@H](CC(C)C)NC(=O)[C@H](CCC(N)=O)NC(=O)[C@H](CC)NC(=O)[C@H](CC(C)C)NC(=O)[C@@H](NC(=O)[C@H](CCCN)NC(=O)[C@H](CCCNC(=N)N)NC(=O)[C@H](Cc1ccc(O)cc1)NC(=O)[C@H](CO)NC(=O)[C@H](CC(N)=O)NC(=O)[C@@H](NC(=O)[C@H](Cc1ccccc1)NC(=O)[C@@H](NC(=O)[C@H](C)NC(=O)[C@H](CC(=O)O)NC(=O)[C@@H](C)NC(=O)CCc1ccc(O)cc1)[C@@H](C)CC)[C@@H](C)O)C(C)C)[C@@H](C)CC)C(=O)N[C@@H](CC(=O)O)C(=O)N[C@@H](CCCNC(=N)N)C(=O)NCCCCCCCC(N)=O [Peptide P-21300, [Dat^1, D-Ala^2, Orn^12, Abu^15, Orn^21, Nle^27, Asp^28, Amc^30]hGHRH(1-30)NH2] (Desaminotyrosyl-[dA]DAIFTNSYR[Orn]VL[Abu]QLSAR[Orn]LLQDI[Nle]DR[Aoc]-NH2) | 1.20
CCCC[C@H](NC(=O)[C@@H](NC(=O)[C@H](CC(=O)O)NC(=O)[C@H](CCC(N)=O)NC(=O)[C@H](CC(C)C)NC(=O)[C@H](CC(C)C)NC(=O)[C@H](CCCN)NC(=O)[C@H](CCCNC(=N)N)NC(=O)[C@H](C)NC(=O)[C@H](CO)NC(=O)[C@H](CC(C)C)NC(=O)[C@H](CCC(N)=O)NC(=O)[C@H](CC)NC(=O)[C@H](CC(C)C)NC(=O)[C@@H](NC(=O)[C@H](CCCN)NC(=O)[C@H](CCCNC(=N)N)NC(=O)[C@H](Cc1ccc(O)cc1)NC(=O)[C@H](CO)NC(=O)[C@H](CC(N)=O)NC(=O)[C@@H](NC(=O)[C@H](Cc1ccccc1)NC(=O)[C@@H](NC(=O)[C@H](C)NC(=O)[C@H](CC(=O)O)NC(=O)[C@H](C)NC(=O)[C@H](Cc1ccc(O)cc1)NC)[C@@H](C)CC)[C@@H](C)O)C(C)C)[C@@H](C)CC)C(=O)N[C@@H](CC(=O)O)C(=O)N[C@@H](CCCNC(=N)N)C(=O)NCCCCCCCC(N)=O [Peptide P-21301, [N—Me-Tyr^1, Orn^12, Abu^15, Orn^21, Nle^27, Asp^28, Amc^30]hGHRH(1-30)NH2] (H-[NMeY]ADAIFTNSYR[Orn]VL[Abu]QLSAR[Orn]LLQDI[Nle]DR[Aoc]-NH2) | 1.45
CCCC[C@H](NC(=O)[C@@H](NC(=O)[C@H](CC(=O)O)NC(=O)[C@H](CCC(N)=O)NC(=O)[C@H](CC(C)C)NC(=O)[C@H](CC(C)C)NC(=O)[C@H](CCCN)NC(=O)[C@H](CCCNC(=N)N)NC(=O)[C@H](C)NC(=O)[C@H](CO)NC(=O)[C@H](CC(C)C)NC(=O)[C@H](CCC(N)=O)NC(=O)[C@H](CC)NC(=O)[C@H](CC(C)C)NC(=O)[C@@H](NC(=O)[C@H](CCCN)NC(=O)[C@H](CCCNC(=N)N)NC(=O)[C@H](Cc1ccc(O)cc1)NC(=O)[C@H](CO)NC(=O)[C@H](CC(N)=O)NC(=O)[C@@H](NC(=O)[C@H](Cc1ccccc1)NC(=O)[C@@H](NC(=O)[C@H](C)NC(=O)[C@H](CC(=O)O)NC(=O)[C@@H](C)NC(=O)[C@H](Cc1ccc(O)cc1)NC)[C@@H](C)CC)[C@@H](C)O)C(C)C)[C@@H](C)CC)C(=O)N[C@@H](CC(=O)O)C(=O)N[C@@H](CCCNC(=N)N)C(=O)NCCCCCCCC(N)=O [Peptide P-21303, [N—Me-Tyr^1, D-Ala^2, Orn^12, Abu^15, Orn^21, Nle^27, Asp^28, Amc^30]hGHRH(1-30)NH2] (H-[NMeY][dA]DAIFTNSYR[Orn]VL[Abu]QLSAR[Orn]LLQDI[Nle]DR[Aoc]-NH2) | 2.32
